What all share (format): cell-based
For assay [1], the system named is spores of ATCC 43255 strain. Description: Inhibition of germination of C. difficile spores (MIC), strain ATCC 43255. Particulars: Clostridioides difficile, ATCC43255, 1 h; strain 43255; sodium taurocholate as germinant, BHIS medium, 37° C., OD580 for 60 min; read-out: MIC (minimum concentration that completely inhibits spore germination). A digest of the protocol: (§1)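 Germination was followed as the drop in OD580 over 60 min at 37° C in BHIS after adding sodium taurocholate to spores premixed with compound. Spores were first heat-activated (65° C, 30 min) and washed free of self-germinating spores. The inhibition rate was calculated against germinant and non-germinant controls.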

The test system of assay [2] is spores of ATCC 630 strain. Description: Inhibition of germination of C. difficile spores (MIC), strain ATCC 630. Particulars: Clostridioides difficile, ATCC630, 1 h; strain 630; sodium taurocholate as germinant, BHIS medium, 37° C., OD580 for 60 min; read-out: MIC (minimum concentration that completely inhibits spore germination). A digest of the protocol: as §1
Assay [3] concerns spores of ATCC BBA1870 strain. Nature of the assay: Inhibition of germination of C. difficile spores (MIC), strain ATCC BBA1870. To be noted: Clostridioides difficile, ATCCBBA1870STRAIN, 1 h; strain 1870; sodium taurocholate as germinant, BHIS medium, 37° C., OD580 for 60 min; read-out: MIC (minimum concentration that completely inhibits spore germination). A digest of the protocol:
as §1

Values after ≈ are worked out from the molar mass of the structure shown. A value given as a limit tells only on which side of the number the result lay.

Turning to `C[C@H](CC(=O)NC(c1cccs1)C1CC1)[C@H]1CC[C@H]2[C@@H]3[C@H](O)C[C@@H]4CC(=O)CC[C@]4(C)[C@H]3CC[C@]12C` (stereo partly drawn) [Compound I-85], the MIC in assay [1], in assay [2] and in assay [3] was 0.5 µM (≈ 0.256 µg/mL) in each case.
Turning to `CCC(NC(=O)C[C@@H](C)[C@H]1CC[C@H]2[C@@H]3[C@H](O)C[C@@H]4CC(=O)CC[C@]4(C)[C@H]3CC[C@]12C)c1ccc(Cl)s1` (stereo partly drawn) [Compound I-86], the MIC in assay [1], in assay [2] and in assay [3] was 0.5 µM (≈ 0.267 µg/mL) throughout.
On to `CC[C@H](NC(=O)C[C@@H](C)[C@H]1CC[C@H]2[C@@H]3[C@H](O)C[C@@H]4CC(=O)CC[C@]4(C)[C@H]3CC[C@]12C)c1ccc(Cl)s1` [Compound I-87], for which the MIC in assay [1] was found to be 128 µM (≈ 68.4 µg/mL); in assay [2], 128 µM (≈ 68.4 µg/mL); in assay [3], 256 µM (≈ 137 µg/mL).
On to `CC[C@@H](NC(=O)C[C@@H](C)[C@H]1CC[C@H]2[C@@H]3[C@H](O)C[C@@H]4CC(=O)CC[C@]4(C)[C@H]3CC[C@]12C)c1ccc(Cl)s1` [Compound I-88], for which the MIC was found to be 0.25 µM (≈ 0.134 µg/mL) in assay [1], 0.125 µM (≈ 0.0668 µg/mL) in assay [2] and 0.25 µM (≈ 0.134 µg/mL) in assay [3].
Turning to `CCC(NC(=O)C[C@@H](C)[C@H]1CC[C@H]2[C@@H]3[C@H](O)C[C@@H]4CC(=O)CC[C@]4(C)[C@H]3CC[C@]12C)c1ccc(Br)s1` (stereo partly drawn) [Compound I-89], the MIC in assay [1], in assay [2] and in assay [3] was 0.5 µM (≈ 0.289 µg/mL) in each case.
Consider `CC[C@H](NC(=O)C[C@@H](C)[C@H]1CC[C@H]2[C@@H]3[C@H](O)C[C@@H]4CC(=O)CC[C@]4(C)[C@H]3CC[C@]12C)c1ccc(Br)s1` [Compound I-90], for which the MIC in assay [1], in assay [2] and in assay [3] was greater than 256 µM each time.
For `CC[C@@H](NC(=O)C[C@@H](C)[C@H]1CC[C@H]2[C@@H]3[C@H](O)C[C@@H]4CC(=O)CC[C@]4(C)[C@H]3CC[C@]12C)c1ccc(Br)s1` [Compound I-91], the MIC in assay [1], in assay [2] and in assay [3] was 0.25 µM (≈ 0.145 µg/mL) in each case.
Take `CCC(NC(=O)C[C@@H](C)[C@H]1CC[C@H]2[C@@H]3[C@H](O)C[C@@H]4CC(=O)CC[C@]4(C)[C@H]3CC[C@]12C)c1ccc(S(=O)(=O)O)s1` (stereo partly drawn) [Compound I-92]: the MIC came to 32 µM (≈ 18.6 µg/mL) in assay [1], 16 µM (≈ 9.28 µg/mL) in assay [2] and 16 µM (≈ 9.28 µg/mL) in assay [3].
As for `CC[C@H](NC(=O)C[C@@H](C)[C@H]1CC[C@H]2[C@@H]3[C@H](O)C[C@@H]4CC(=O)CC[C@]4(C)[C@H]3CC[C@]12C)c1ccc(S(=O)(=O)O)s1` [Compound I-93], the MIC in assay [1], in assay [2] and in assay [3] was greater than 256 µM in each case.
Consider `CC[C@@H](NC(=O)C[C@@H](C)[C@H]1CC[C@H]2[C@@H]3[C@H](O)C[C@@H]4CC(=O)CC[C@]4(C)[C@H]3CC[C@]12C)c1ccc(S(=O)(=O)O)s1` [Compound I-94], for which the MIC stood at 16 µM (≈ 9.28 µg/mL) in assay [1], 8 µM (≈ 4.64 µg/mL) in assay [2] and 8 µM (≈ 4.64 µg/mL) in assay [3].
With `CC(C)C(NC(=O)C[C@@H](C)[C@H]1CC[C@H]2[C@@H]3[C@H](O)C[C@@H]4CC(=O)CC[C@]4(C)[C@H]3CC[C@]12C)c1ccc(Cl)s1` (stereo partly drawn) [Compound I-95], the MIC in assay [1], in assay [2] and in assay [3] was 0.25 µM (≈ 0.137 µg/mL) each time.
Take `CC(C)[C@H](NC(=O)C[C@@H](C)[C@H]1CC[C@H]2[C@@H]3[C@H](O)C[C@@H]4CC(=O)CC[C@]4(C)[C@H]3CC[C@]12C)c1ccc(Cl)s1` [Compound I-96]: the MIC in assay [1], in assay [2] and in assay [3] was 4 µM (≈ 2.19 µg/mL) each time.
As to `CC(C)[C@@H](NC(=O)C[C@@H](C)[C@H]1CC[C@H]2[C@@H]3[C@H](O)C[C@@H]4CC(=O)CC[C@]4(C)[C@H]3CC[C@]12C)c1ccc(Cl)s1` [Compound I-97], the MIC in assay [1], in assay [2] and in assay [3] was 0.125 µM (≈ 0.0685 µg/mL) throughout.
Take `CC(C)C(NC(=O)C[C@@H](C)[C@H]1CC[C@H]2[C@@H]3[C@H](O)C[C@@H]4CC(=O)CC[C@]4(C)[C@H]3CC[C@]12C)c1ccc(Br)s1` (stereo partly drawn) [Compound I-98]: the MIC in assay [1], in assay [2] and in assay [3] was 0.5 µM (≈ 0.296 µg/mL) each time.
Consider `CC(C)[C@H](NC(=O)C[C@@H](C)[C@H]1CC[C@H]2[C@@H]3[C@H](O)C[C@@H]4CC(=O)CC[C@]4(C)[C@H]3CC[C@]12C)c1ccc(Br)s1` [Compound I-99], for which the MIC in assay [1] is 256 µM (≈ 152 µg/mL); in assay [2], 256 µM (≈ 152 µg/mL); in assay [3], greater than 256 µM.
On to `CC(C)[C@@H](NC(=O)C[C@@H](C)[C@H]1CC[C@H]2[C@@H]3[C@H](O)C[C@@H]4CC(=O)CC[C@]4(C)[C@H]3CC[C@]12C)c1ccc(Br)s1` [Compound I-100], for which the MIC in assay [1], in assay [2] and in assay [3] was 0.25 µM (≈ 0.148 µg/mL) throughout.
Turning to `CC(C)C(NC(=O)C[C@@H](C)[C@H]1CC[C@H]2[C@@H]3[C@H](O)C[C@@H]4CC(=O)CC[C@]4(C)[C@H]3CC[C@]12C)c1ccc(S(=O)(=O)O)s1` (stereo partly drawn) [Compound I-101], the MIC in assay [1], in assay [2] and in assay [3] was 32 µM (≈ 19 µg/mL) throughout.
Turning to `CC(C)[C@H](NC(=O)C[C@@H](C)[C@H]1CC[C@H]2[C@@H]3[C@H](O)C[C@@H]4CC(=O)CC[C@]4(C)[C@H]3CC[C@]12C)c1ccc(S(=O)(=O)O)s1` [Compound I-102], the MIC in assay [1], in assay [2] and in assay [3] was greater than 256 µM throughout.
As for `CC(C)[C@@H](NC(=O)C[C@@H](C)[C@H]1CC[C@H]2[C@@H]3[C@H](O)C[C@@H]4CC(=O)CC[C@]4(C)[C@H]3CC[C@]12C)c1ccc(S(=O)(=O)O)s1` [Compound I-103], the MIC in assay [1], in assay [2] and in assay [3] was 16 µM (≈ 9.5 µg/mL) throughout.
With `CCC(NC(=O)C[C@@H](C)[C@H]1CC[C@H]2[C@@H]3[C@H](OS(=O)(=O)O)C[C@@H]4CC(=O)CC[C@]4(C)[C@H]3CC[C@]12C)c1ccc(Cl)s1` (stereo partly drawn) [Compound I-104], the MIC in assay [1], in assay [2] and in assay [3] was 1 µM (≈ 0.614 µg/mL) throughout.
Regarding `CC[C@H](NC(=O)C[C@@H](C)[C@H]1CC[C@H]2[C@@H]3[C@H](OS(=O)(=O)O)C[C@@H]4CC(=O)CC[C@]4(C)[C@H]3CC[C@]12C)c1ccc(Cl)s1` [Compound I-105], the MIC in assay [1], in assay [2] and in assay [3] was greater than 256 µM throughout.
Regarding `CC[C@@H](NC(=O)C[C@@H](C)[C@H]1CC[C@H]2[C@@H]3[C@H](OS(=O)(=O)O)C[C@@H]4CC(=O)CC[C@]4(C)[C@H]3CC[C@]12C)c1ccc(Cl)s1` [Compound I-106], the MIC in assay [1] amounted to 0.25 µM (≈ 0.154 µg/mL); in assay [2], 0.5 µM (≈ 0.307 µg/mL); in assay [3], 0.5 µM (≈ 0.307 µg/mL).
On to `CCC(NC(=O)C[C@@H](C)[C@H]1CC[C@H]2[C@@H]3[C@H](OS(=O)(=O)O)C[C@@H]4CC(=O)CC[C@]4(C)[C@H]3CC[C@]12C)c1ccc(Br)s1` (stereo partly drawn) [Compound I-107], for which the MIC in assay [1], in assay [2] and in assay [3] was 1 µM (≈ 0.659 µg/mL) each time.
Turning to `CC[C@H](NC(=O)C[C@@H](C)[C@H]1CC[C@H]2[C@@H]3[C@H](OS(=O)(=O)O)C[C@@H]4CC(=O)CC[C@]4(C)[C@H]3CC[C@]12C)c1ccc(Br)s1` [Compound I-108], the MIC in assay [1], in assay [2] and in assay [3] was greater than 256 µM each time.
As for `CC[C@@H](NC(=O)C[C@@H](C)[C@H]1CC[C@H]2[C@@H]3[C@H](OS(=O)(=O)O)C[C@@H]4CC(=O)CC[C@]4(C)[C@H]3CC[C@]12C)c1ccc(Br)s1` [Compound I-109], the MIC in assay [1] came to 0.25 µM (≈ 0.165 µg/mL); in assay [2] it was 0.5 µM (≈ 0.329 µg/mL); in assay [3], 0.5 µM (≈ 0.329 µg/mL).
As to `CC(C)C(NC(=O)C[C@@H](C)[C@H]1CC[C@H]2[C@@H]3[C@H](OS(=O)(=O)O)C[C@@H]4CC(=O)CC[C@]4(C)[C@H]3CC[C@]12C)c1ccc(Cl)s1` (stereo partly drawn) [Compound I-110], the MIC in assay [1] was 0.5 µM (≈ 0.314 µg/mL); in assay [2], 1 µM (≈ 0.628 µg/mL); in assay [3], 1 µM (≈ 0.628 µg/mL).
For `CC(C)[C@H](NC(=O)C[C@@H](C)[C@H]1CC[C@H]2[C@@H]3[C@H](OS(=O)(=O)O)C[C@@H]4CC(=O)CC[C@]4(C)[C@H]3CC[C@]12C)c1ccc(Cl)s1` [Compound I-111], the MIC in assay [1], in assay [2] and in assay [3] was greater than 256 µM each time.
`CC(C)[C@@H](NC(=O)C[C@@H](C)[C@H]1CC[C@H]2[C@@H]3[C@H](OS(=O)(=O)O)C[C@@H]4CC(=O)CC[C@]4(C)[C@H]3CC[C@]12C)c1ccc(Cl)s1` [Compound I-112]: the figures for the MIC in assay [1], in assay [2] and in assay [3] were 0.25 µM (≈ 0.157 µg/mL), 0.5 µM (≈ 0.314 µg/mL) and 0.5 µM (≈ 0.314 µg/mL), respectively.
